Assay results taken from paper PMC10332459, “N-terminal lid swapping contributes to the substrate specificity and activity of thermophilic lipase TrLipE” (Frontiers in Microbiology, 2023).
Values belong to the molecule of their own block, whether it stands above or below them.

Key:
Assay in all cases: p-nitrophenol release at […] nm, non-linear fit
Assay type in all cases: biochemical, Thermomicrobium roseum
[1] = test system: T1, TrL3; conditions: 60 °C; Tris-HCl 50 mM pH 8.0; gum arabic and sodium deoxycholate emulsion; read-out: 4-Nitrophenyl benzoate
T1 construct: gene EstE7; N-terminal lid Asp13-Gly57 of 3K6K fused to TrLipE Val54-Ala323; His-tagged, E. coli BL21, 35-37 kDa

[2] = test system: T2, TrL17; conditions: 60 °C; Tris-HCl 50 mM pH 8.0; gum arabic and sodium deoxycholate emulsion; read-out: 4-Nitrophenyl benzoate
T2 construct: gene EstN7; N-terminal lid Lys2-Glu45 of 7B4Q fused to TrLipE Val54-Ala323; His-tagged, E. coli BL21, 35-37 kDa

[3] = test system: T3, TrL18; conditions: 60 °C; Tris-HCl 50 mM pH 8.0; gum arabic and sodium deoxycholate emulsion; read-out: 4-Nitrophenyl benzoate
T3 construct: N-terminal lid Ala2-Glu45 of 7UAY fused to TrLipE Val54-Ala323; His-tagged, E. coli BL21, 35-37 kDa

[4] = test system: T4, TrL2; conditions: 60 °C; Tris-HCl 50 mM pH 8.0; gum arabic and sodium deoxycholate emulsion; read-out: 4-Nitrophenyl benzoate
T4 construct: gene EstE5; N-terminal lid Ala2-Asp42 of 3H18 fused to TrLipE Val54-Ala323; His-tagged, E. coli BL21, 35-37 kDa

[5] = test system: T5, TrL16; conditions: 60 °C; Tris-HCl 50 mM pH 8.0; gum arabic and sodium deoxycholate emulsion; read-out: 4-Nitrophenyl decanoate
T5 construct: gene PMGL3; N-terminal lid Asn2-Cys49 of 7B1X fused to TrLipE Val54-Ala323; His-tagged, E. coli BL21, 35-37 kDa

[6] = test system: T6, TrL8; conditions: 60 °C; Tris-HCl 50 mM pH 8.0; gum arabic and sodium deoxycholate emulsion; read-out: 4-Nitrophenyl decanoate
T6 construct: gene ThaEst2349; N-terminal lid Pro2-Asp49 of 4V2I fused to TrLipE Val54-Ala323; His-tagged, E. coli BL21, 35-37 kDa

[7] = test system: T7, TrL7; conditions: 60 °C; Tris-HCl 50 mM pH 8.0; gum arabic and sodium deoxycholate emulsion; read-out: 4-Nitrophenyl laurate
T7 construct: gene SshEstI; N-terminal lid Pro2-Lys45 of 4P9N fused to TrLipE Val54-Ala323; His-tagged, E. coli BL21, 35-37 kDa

[8] = test system: T8, TrL5; conditions: 60 °C; Tris-HCl 50 mM pH 8.0; gum arabic and sodium deoxycholate emulsion; read-out: 4-Nitrophenyl laurate
T8 construct: N-terminal lid Asn23-Pro66 of 4C89 fused to TrLipE Val54-Ala323; His-tagged, E. coli BL21, 35-37 kDa

[9] = test system: T9, TrL9; conditions: 60 °C; Tris-HCl 50 mM pH 8.0; gum arabic and sodium deoxycholate emulsion; read-out: 4-Nitrophenyl palmitate
T9 construct: gene Est8; N-terminal lid Ala2-Gly49 of 4YPV fused to TrLipE Val54-Ala323; His-tagged, E. coli BL21, 35-37 kDa

[10] = test system: T10, TrL12; conditions: 60 °C; Tris-HCl 50 mM pH 8.0; gum arabic and sodium deoxycholate emulsion; read-out: 4-Nitrophenyl palmitate
T10 construct: gene TmelEST2; N-terminal lid Gln34-Glu74 of 5MIF fused to TrLipE Val54-Ala323; His-tagged, E. coli BL21, 35-37 kDa

[11] = test system: T11, TrL4; conditions: 60 °C; Tris-HCl 50 mM pH 8.0; gum arabic and sodium deoxycholate emulsion; read-out: 4-Nitrophenyl palmitate
T11 construct: gene LipW; N-terminal lid Val2-Gly53 of 3QH4 fused to TrLipE Val54-Ala323; His-tagged, E. coli BL21, 35-37 kDa

[12] = test system: T12, TrL11; conditions: 60 °C; Tris-HCl 50 mM pH 8.0; gum arabic and sodium deoxycholate emulsion; read-out: 4-Nitrophenyl palmitate
T12 construct: gene E53; N-terminal lid Lys4-Gly69 of 5HC0 fused to TrLipE Val54-Ala323; His-tagged, E. coli BL21, 35-37 kDa

[13] = test system: T13, TrL1; conditions: 60 °C; Tris-HCl 50 mM pH 8.0; gum arabic and sodium deoxycholate emulsion; read-out: 4-Nitrophenyl palmitate
T13 construct: gene EST2; N-terminal lid Leu3-Pro44 of 1EVQ fused to TrLipE Val54-Ala323; His-tagged, E. coli BL21, 35-37 kDa

Km [1]: 37 µM
Km [2]: 60.2 µM
Km [3]: 44.9 µM
Km [4]: 50 µM
Structure (SMILES): O=C(Oc1ccc([N+](=O)[O-])cc1)c1ccccc1 [4-Nitrophenyl benzoate]

Km [5]: 44.7 µM
Km [6]: 21.8 µM
Structure (SMILES): CCCCCCCCCC(=O)Oc1ccc([N+](=O)[O-])cc1 [4-Nitrophenyl decanoate]

Km [7]: 12.8 µM
Km [8]: 21.1 µM
Structure (SMILES): CCCCCCCCCCCC(=O)Oc1ccc([N+](=O)[O-])cc1 [4-Nitrophenyl laurate]

Structure (SMILES): CCCCCCCCCCCCCCCC(=O)Oc1ccc([N+](=O)[O-])cc1 [4-Nitrophenyl palmitate]
Km [9]: 23.2 µM
Km [10]: 13.7 µM
Km [11]: 7.46 µM
Km [12]: 77.4 µM
Km [13]: 55.3 µM
